From ChEMBL document CHEMBL1201862, “PubChem BioAssay data set” (2004)
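Step 1: Grow cells in 96-well plates. Step 2: Expose to compound for 48 hours at 5 concentrations. Step 3: Interpolate endpoints linearly; if unreached, use highest concentration. At the GI50, growth is halved.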 Calls of active or inactive are those of the source. Cut-off read from the data, not from the text of the source: active = GI50 up to about 1.1 µM and inactive = higher.

Key:
Test in all cases: inhibition of tumour cell growth, NCI panel, 48 h
DLD-1 = test system: DLD-1
DMS-273 = test system: DMS-273
HOP-18 = test system: HOP-18
KM-20L2 = test system: KM-20L2
M19-MEL = test system: M19-MEL
SNB-78 = test system: SNB-78
XF498 = test system: XF498
LXFL 529 = test system: LXFL 529
RXF 631 = test system: RXF 631

| SMILES | GI50 (DLD-1) | GI50 (DMS-273) | GI50 (HOP-18) | GI50 (KM-20L2) | GI50 (M19-MEL) | GI50 (SNB-78) | GI50 (XF498) | GI50 (LXFL 529) | GI50 (RXF 631) |
| --- | --- | --- | --- | --- | --- | --- | --- | --- | --- |
| CCCCCCCCCC[S+]([O-])CC(CO)NC(=O)/C=C/c1c(C)nc(O)nc1O (configuration not stated) | 0.476 µM (active) | 0.37 µM (active) | 1.49 µM (inactive) | 0.695 µM (active) | 0.475 µM (active) | 0.718 µM (active) | 0.0376 µM (active) | – | – |
| CCN(CC)CCC(=O)N1C/C(=C/c2ccccc2)C(=O)/C(=C\c2ccccc2)C1 | 1.29 µM (inactive) | 1.42 µM (inactive) | 2.8 µM (inactive) | 1.71 µM (inactive) | 1.39 µM (inactive) | – | 2.63 µM (inactive) | 1.56 µM (inactive) | – |
| CCOC(=O)NC(=O)c1cn(CC(=O)NCC(=O)NCC(=O)NCCCN2CCN(CCCNC(=O)CNC(=O)CNC(=O)Cn3cc(C(=O)NC(=O)OCC)c(=O)[nH]c3=O)CC2)c(=O)[nH]c1=O | > 100 µM (inactive) | > 100 µM (inactive) | > 100 µM (inactive) | > 100 µM (inactive) | > 100 µM (inactive) | > 100 µM (inactive) | > 100 µM (inactive) | > 100 µM (inactive) | > 100 µM (inactive) |
| CCCCCCCCCCCCCC(=O)OC(/C=C/C(C)C)C(O)C(O)C(OC)C(=O)NC1CCCCN(C)C1=O (configuration not stated) | 1.56 µM (inactive) | 0.817 µM (active) | 3.54 µM (inactive) | 2.94 µM (inactive) | 3.48 µM (inactive) | 4.8 µM (inactive) | – | 2.97 µM (inactive) | 1.18 µM (inactive) |
| O=C1CCC2(O)c3ccccc3C2Cc2ccccc21 (configuration not stated) | > 100 µM (inactive) | > 100 µM (inactive) | > 100 µM (inactive) | > 100 µM (inactive) | > 100 µM (inactive) | > 100 µM (inactive) | > 100 µM (inactive) | – | – |
| Cc1cc(O)nc(NNC(C#N)c2c(O)ccc3ccccc23)n1 (configuration not stated) | 3.42 µM (inactive) | 3.87 µM (inactive) | 4.49 µM (inactive) | 24.8 µM (inactive) | 4.68 µM (inactive) | 19.3 µM (inactive) | – | 8.79 µM (inactive) | – |
| COc1ccc2c(=O)c([Se]c3coc4cc(OC)ccc4c3=O)coc2c1 | 36.6 µM (inactive) | 53.2 µM (inactive) | > 100 µM (inactive) | > 100 µM (inactive) | 28.3 µM (inactive) | 22.7 µM (inactive) | > 100 µM (inactive) | 32.5 µM (inactive) | – |
| COc1ccc(C(=C[N+](=O)[O-])c2ccc(OC)cc2)cc1 | 16.7 µM (inactive) | 2.74 µM (inactive) | > 100 µM (inactive) | 10.6 µM (inactive) | – | 14.7 µM (inactive) | – | 16.2 µM (inactive) | 14 µM (inactive) |
| N/N=C(/C(=O)Nc1cccc(Cl)c1)C(C(=O)c1ccc(O)cc1O)C1OC(=O)c2ccccc21 (configuration not stated) | – | 65.9 µM (inactive) | – | > 100 µM (inactive) | > 100 µM (inactive) | > 100 µM (inactive) | – | > 100 µM (inactive) | – |
| O=C(/C=C\c1cccc2ccccc12)c1ccc(Br)cc1 | 20.5 µM (inactive) | 16.7 µM (inactive) | 19.2 µM (inactive) | 16.3 µM (inactive) | 19 µM (inactive) | 20.6 µM (inactive) | – | 18.1 µM (inactive) | – |
| CCOC(=O)[C@H]1Nc2ccc([N+](=O)[O-])cc2C2c3ccccc3CC21 (some centres not stated) | 25.4 µM (inactive) | 12.6 µM (inactive) | – | 20.6 µM (inactive) | 20.8 µM (inactive) | 42.1 µM (inactive) | 30 µM (inactive) | 5.79 µM (inactive) | – |
| CCCCCCCCCCCCC(CC)CCCCC(=O)O (configuration not stated) | > 100 µM (inactive) | > 100 µM (inactive) | > 100 µM (inactive) | > 100 µM (inactive) | > 100 µM (inactive) | > 100 µM (inactive) | > 100 µM (inactive) | > 100 µM (inactive) | > 100 µM (inactive) |
| CCCCOP1(=O)CC(C)=C(Cl)C(C)(OC)C1 (configuration not stated) | 44.8 µM (inactive) | > 100 µM (inactive) | – | > 100 µM (inactive) | > 100 µM (inactive) | > 100 µM (inactive) | > 100 µM (inactive) | 45.2 µM (inactive) | – |
| O=C1CCN2CCC(=O)c3c2c(cc2ccccc32)N1 | > 100 µM (inactive) | > 100 µM (inactive) | – | > 100 µM (inactive) | > 100 µM (inactive) | > 100 µM (inactive) | 26.8 µM (inactive) | > 100 µM (inactive) | – |
